In patent US10016438B2, “Bicyclic heterocycles as FGFR4 inhibitors” (Incyte Corporation, priority 2015, dated 2018):

These compounds were tested against FGFR4 (Homo sapiens (Human), UniProt P22455) (assay: FGFR Enzymatic Assay (FRET peptide phosphorylation), FGFR4). Settings: IC50 ratio showing FGFR4 selectivity; pre-incubated for 5 to 10 minutes.
Sequence of FGFR4 (P22455 22-802): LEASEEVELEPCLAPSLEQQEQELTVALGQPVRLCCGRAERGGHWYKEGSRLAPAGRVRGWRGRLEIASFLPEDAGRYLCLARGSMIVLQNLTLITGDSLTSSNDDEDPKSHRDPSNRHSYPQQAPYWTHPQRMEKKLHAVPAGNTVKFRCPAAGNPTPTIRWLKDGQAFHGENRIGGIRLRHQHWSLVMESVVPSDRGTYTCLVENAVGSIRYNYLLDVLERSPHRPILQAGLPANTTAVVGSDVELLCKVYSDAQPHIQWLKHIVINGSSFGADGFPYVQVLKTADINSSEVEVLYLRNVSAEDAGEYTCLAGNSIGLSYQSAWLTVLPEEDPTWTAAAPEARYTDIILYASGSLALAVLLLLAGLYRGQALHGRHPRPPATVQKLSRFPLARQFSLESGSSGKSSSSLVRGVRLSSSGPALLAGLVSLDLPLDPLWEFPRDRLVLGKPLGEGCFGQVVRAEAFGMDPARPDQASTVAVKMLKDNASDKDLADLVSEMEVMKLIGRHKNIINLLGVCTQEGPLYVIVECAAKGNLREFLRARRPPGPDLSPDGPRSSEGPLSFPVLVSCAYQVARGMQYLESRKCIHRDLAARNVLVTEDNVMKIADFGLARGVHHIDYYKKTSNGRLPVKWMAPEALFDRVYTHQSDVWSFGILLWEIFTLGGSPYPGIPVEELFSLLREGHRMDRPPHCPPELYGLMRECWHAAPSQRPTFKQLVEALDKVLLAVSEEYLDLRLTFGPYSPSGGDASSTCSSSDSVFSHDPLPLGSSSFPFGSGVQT
Text: The enzymes were purchased from Millipore or Invitrogen.
GraphPad prism3 was used to analyze the data. The IC50 values were derived by fitting the data to the equation for a sigmoidal dose-response with a variable slope. Y=Bottom+(Top−Bottom)/(1+10^((Log IC50−X)*HillSlope)) where X is the logarithm of concentration and Y is the response.

Row | FGFR1/FGFR4 | FGFR2/FGFR4 | FGFR3/FGFR4 | SMILES
1 | >10 | >1 | >1 | C=CC(=O)Nc1cc(-c2cc3c(cn2)CN(c2c(F)c(OC)cc(OC)c2F)C(=O)C32CC2)ccc1CN1CCOCC1 [Example 12, N-(5-(2′-(2,6-difluoro-3,5-dimethoxyphenyl)-3′-oxo-2′,3′-dihydro-1′H-spiro[cyclopropane-1,4′-[2,7]naphthyridine]-6′-yl)-2-(morpholinomethyl)phenyl)acrylamide]

Same assay, conditions: IC50 ratio showing FGFR4 selectivity; pre-incubated for 4 hours

Row | FGFR1/FGFR4 | FGFR2/FGFR4 | FGFR3/FGFR4 | SMILES
2 | >100 | >50 | >100 | C=CC(=O)Nc1cnn(Cc2ccnn2C)c1-c1cc2c(cn1)CN(c1c(F)c(OC)cc(OC)c1F)C(=O)C21CC1 [Example 26, N-(5-(2′-(2,6-difluoro-3,5-dimethoxyphenyl)-3′-oxo-2′,3′-dihydro-1′H-spiro[cyclopropane-1,4′-[2,7]naphthyridine]-6′-yl)-1-((1-methyl-1H-pyrazol-5-yl)methyl)-1H-pyrazol-4-yl)acrylamide]
3 | >100 | >100 | >100 | C=CC(=O)Nc1cnn(CCO)c1-c1cc2c(cn1)CN(c1c(F)c(OC)cc(OC)c1F)C(=O)C21CC1 [Example 17, N-(5-(2′-(2,6-difluoro-3,5-dimethoxyphenyl)-3′-oxo-2′,3′-dihydro-1′H-spiro[cyclopropane-1,4′-[2,7]naphthyridine]-6′-yl)-1-(2-hydroxyethyl)-1H-pyrazol-4-yl)acrylamide]
4 | >100 | >100 | >100 | C=CC(=O)Nc1cn(CC2CCOCC2)nc1-c1cc2c(cn1)CN(c1c(F)c(OC)cc(OC)c1F)C(=O)C21CC1 [Example 35, N-(3-(2′-(2,6-difluoro-3,5-dimethoxyphenyl)-3′-oxo-2′,3′-dihydro-1′H-spiro[cyclopropane-1,4′-[2,7]naphthyridine]-6′-yl)-1-((tetrahydro-2H-pyran-4-yl)methyl)-1H-pyrazol-4-yl)acrylamide]
5 | >100 | >25 | >10 | C=CC(=O)Nc1cc(-c2cc3c(cn2)CN(c2c(F)c(OC)cc(OC)c2F)C(=O)C32CC2)ccc1CN1CCOCC1 [Example 12, N-(5-(2′-(2,6-difluoro-3,5-dimethoxyphenyl)-3′-oxo-2′,3′-dihydro-1′H-spiro[cyclopropane-1,4′-[2,7]naphthyridine]-6′-yl)-2-(morpholinomethyl)phenyl)acrylamide]
6 | >100 | >100 | >100 | C=CC(=O)Nc1cn[nH]c1-c1cc2c(cn1)CN(c1c(F)c(OC)cc(OC)c1F)C(=O)C21CC1 [Example 14, N-(5-(2′-(2,6-difluoro-3,5-dimethoxyphenyl)-3′-oxo-2′,3′-dihydro-1′H-spiro[cyclopropane-1,4′-[2,7]naphthyridine]-6′-yl)-1H-pyrazol-4-yl)acrylamide]
7 | >100 | >100 | >100 | C=CC(=O)Nc1cnn(CCOCC)c1-c1cc2c(cn1)CN(c1c(F)c(OC)cc(OC)c1F)C(=O)C21CC1 [Example 16, N-(5-(2′-(2,6-difluoro-3,5-dimethoxyphenyl)-3′-oxo-2′,3′-dihydro-1′H-spiro[cyclopropane-1,4′-[2,7]naphthyridine]-6′-yl)-1-(2-ethoxyethyl)-1H-pyrazol-4-yl)acrylamide]
8 | >100 | >100 | >100 | C=CC(=O)Nc1cnn(C[C@H]2CCCO2)c1-c1cc2c(cn1)CN(c1c(F)c(OC)cc(OC)c1F)C(=O)C21CC1 [Example 30, (R)-N-(5-(2′-(2,6-difluoro-3,5-dimethoxyphenyl)-3′-oxo-2′,3′-dihydro-1′H-spiro[cyclopropane-1,4′-[2,7]naphthyridine]-6′-yl)-1-((tetrahydrofuran-2-yl)methyl)-1H-pyrazol-4-yl)acrylamide]
9 | >100 | >100 | >100 | C=CC(=O)Nc1cn(CCOC)nc1-c1cc2c(cn1)CN(c1c(F)c(OC)cc(OC)c1F)C(=O)C21CC1 [Example 32, N-(3-(2′-(2,6-difluoro-3,5-dimethoxyphenyl)-3′-oxo-2′,3′-dihydro-1′H-spiro[cyclopropane-1,4′-[2,7]naphthyridine]-6′-yl)-1-(2-methoxyethyl)-1H-pyrazol-4-yl)acrylamide]
